Measurements reported in ChEMBL document CHEMBL2163313, “Shape-based reprofiling of FDA-approved drugs for the H₁ histamine receptor” (J Med Chem, 2012).
Active and inactive are the calls of the source. No cut-off for these calls is given here.

Experiments:
HeLa = assay: Antagonist activity at P2Y receptor in human HeLa cells assessed as inhibition of ATP-induced Ca2+ release at 100 uM by using fura-2AM-based fluorescence assay; format: functional, cell-based
Histamine H1 receptor [1] = target: T1, Histamine H1 receptor (Homo sapiens, UniProt P35367); assay: Antagonist activity at histamine H1 receptor in human HeLa cells assessed as inhibition of histamine-induced Ca2+ release at 100 uM by using fura-2AM-based fluorescence assay; format: functional, cell-based
T1 sequence (P35367 whole entry): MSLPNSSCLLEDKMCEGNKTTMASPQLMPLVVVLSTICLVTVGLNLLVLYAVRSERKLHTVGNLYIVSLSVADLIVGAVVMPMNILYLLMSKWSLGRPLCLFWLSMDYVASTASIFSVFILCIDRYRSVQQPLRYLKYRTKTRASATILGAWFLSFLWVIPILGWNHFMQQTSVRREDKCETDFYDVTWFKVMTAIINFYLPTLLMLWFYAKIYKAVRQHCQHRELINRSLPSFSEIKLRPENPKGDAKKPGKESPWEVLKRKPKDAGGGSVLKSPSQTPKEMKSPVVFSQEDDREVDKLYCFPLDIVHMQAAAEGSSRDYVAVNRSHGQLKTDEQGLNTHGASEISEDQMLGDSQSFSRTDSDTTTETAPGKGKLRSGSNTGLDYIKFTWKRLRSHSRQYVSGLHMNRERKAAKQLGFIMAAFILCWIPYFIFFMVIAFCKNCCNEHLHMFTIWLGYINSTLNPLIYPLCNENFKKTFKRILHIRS

Histamine H1 receptor [2] = target: Histamine H1 receptor (Rattus norvegicus, UniProt P31390); format: cell membranes, Sprague-Dawley, Brain, Membrane
Sequence of Histamine H1 receptor (Rattus norvegicus, UniProt P31390) (P31390 whole entry): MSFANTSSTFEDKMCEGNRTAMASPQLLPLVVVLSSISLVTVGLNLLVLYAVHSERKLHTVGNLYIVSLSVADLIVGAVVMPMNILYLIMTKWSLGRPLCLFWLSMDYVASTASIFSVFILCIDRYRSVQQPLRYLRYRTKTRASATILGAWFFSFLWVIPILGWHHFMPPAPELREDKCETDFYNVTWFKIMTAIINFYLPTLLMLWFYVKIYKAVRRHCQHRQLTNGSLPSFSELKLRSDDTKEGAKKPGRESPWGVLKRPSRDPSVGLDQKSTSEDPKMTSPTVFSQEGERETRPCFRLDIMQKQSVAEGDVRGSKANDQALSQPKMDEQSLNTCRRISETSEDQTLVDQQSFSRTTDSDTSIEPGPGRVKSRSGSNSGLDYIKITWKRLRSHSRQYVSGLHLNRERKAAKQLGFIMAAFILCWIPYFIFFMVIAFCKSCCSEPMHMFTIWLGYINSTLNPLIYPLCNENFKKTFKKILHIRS

Histamine H1 receptor [3] = target: T1, Histamine H1 receptor; assay: Antagonist activity at H1 receptor in human HeLa cells assessed as inhibition of histamine-induced Ca2+ release by using fura-2AM-based fluorescence assay; format: functional, cell-based

Row | Compound | inhibition (HeLa) | inhibition (Histamine H1 receptor [1]) | IC50 (Histamine H1 receptor [2]) | IC50 (Histamine H1 receptor [3])
1 | NC(=O)OCC(COC(N)=O)c1ccccc1 | inactive | – | – | –
2 | OC(CCN1CCCCC1)(c1ccccc1)C1CC2C=CC1C2 (centres undefined) | Active | Active | – | –
3 | CCN(CC)CCOC(=O)C(c1ccccc1)c1ccccc1 [ADIPHENINE] | – | – | 17 µM | 112 µM
4 | CN(C)CC/C=C1/c2ccccc2Sc2ccc(Cl)cc21 [CHLORPROTHIXENE] | – | – | 0.00107 µM | –
5 | CN1[C@@H](CC(=O)c2ccccc2)CCC[C@H]1C[C@H](O)c1ccccc1 [LOBELINE] | – | – | 11.2 µM | 44.7 µM
6 | OC(CCN1CCCC1)(c1ccccc1)C1CCCCC1 (centres undefined) [PROCYCLIDINE] | – | – | 6.76 µM | –
